This note sets out measurements from article PMC4165196, “Curcumin, a Natural Antioxidant, Acts as a Noncompetitive Inhibitor of Human RNase L in Presence of Its Cofactor 2-5A In Vitro” (BioMed Research International, 2014).

This assay addresses T1, human RNase L (Homo sapiens, UniProt Q05823).
T1 construct: gene RNASEL; full-length (741 a.a.) recombinant human RNase L, GST-RNase L fusion protein
T1 sequence (Q05823 1-741): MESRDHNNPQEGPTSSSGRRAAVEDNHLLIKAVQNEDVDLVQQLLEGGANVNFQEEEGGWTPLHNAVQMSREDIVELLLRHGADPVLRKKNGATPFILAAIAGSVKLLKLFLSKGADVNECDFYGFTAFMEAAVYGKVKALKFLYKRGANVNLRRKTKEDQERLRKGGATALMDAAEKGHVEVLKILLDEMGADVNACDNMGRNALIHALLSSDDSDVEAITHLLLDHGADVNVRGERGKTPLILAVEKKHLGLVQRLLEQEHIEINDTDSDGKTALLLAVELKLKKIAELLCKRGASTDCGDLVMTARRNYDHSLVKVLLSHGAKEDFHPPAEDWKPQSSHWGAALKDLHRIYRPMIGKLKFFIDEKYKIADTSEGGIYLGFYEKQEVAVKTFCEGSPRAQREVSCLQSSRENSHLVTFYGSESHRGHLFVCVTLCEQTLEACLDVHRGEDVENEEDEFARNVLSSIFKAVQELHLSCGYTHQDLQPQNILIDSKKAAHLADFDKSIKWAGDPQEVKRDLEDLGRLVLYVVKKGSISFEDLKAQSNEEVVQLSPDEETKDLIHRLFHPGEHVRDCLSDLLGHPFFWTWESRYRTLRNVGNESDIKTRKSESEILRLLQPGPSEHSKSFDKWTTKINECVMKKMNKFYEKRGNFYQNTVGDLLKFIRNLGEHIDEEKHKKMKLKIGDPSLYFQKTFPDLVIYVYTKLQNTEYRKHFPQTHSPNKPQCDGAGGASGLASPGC
Kind of assay: intrinsic fluorescence quenching titration (Hill fit); also noncompetitive inhibition of purified GST-RNase L RNA degradation with […]-5A, Ki […], biphasic dose response. It counts as binding.

As to `COc1cc(/C=C/C(=O)CC(=O)/C=C/c2ccc(O)c(OC)c2)ccc1O` [curcumin, 1,7-bis-[4 hydroxy-3-methoxy]-1,6 heptadiene-3,5-dione], binding was characterised by a dissociation constant (Kd) of 397 ± 18 nM.
